Results from US20100222396A1 (Novartis AG, priority 2009, published 2010).

Legend:
[1] = target: T1, human orexin 2 receptor (hOx2R) (Homo sapiens, UniProt O43614); assay: Calcium accumulation in cells (FLIPR), antagonism of orexin A, hOx2R; format: cell-based; conditions: cells expressing human orexin 2 receptor; IC50 vs orexin A converted by Cheng and Prusoff correction
T1 construct: expressed in transfected cells
T1 sequence (O43614 1-444): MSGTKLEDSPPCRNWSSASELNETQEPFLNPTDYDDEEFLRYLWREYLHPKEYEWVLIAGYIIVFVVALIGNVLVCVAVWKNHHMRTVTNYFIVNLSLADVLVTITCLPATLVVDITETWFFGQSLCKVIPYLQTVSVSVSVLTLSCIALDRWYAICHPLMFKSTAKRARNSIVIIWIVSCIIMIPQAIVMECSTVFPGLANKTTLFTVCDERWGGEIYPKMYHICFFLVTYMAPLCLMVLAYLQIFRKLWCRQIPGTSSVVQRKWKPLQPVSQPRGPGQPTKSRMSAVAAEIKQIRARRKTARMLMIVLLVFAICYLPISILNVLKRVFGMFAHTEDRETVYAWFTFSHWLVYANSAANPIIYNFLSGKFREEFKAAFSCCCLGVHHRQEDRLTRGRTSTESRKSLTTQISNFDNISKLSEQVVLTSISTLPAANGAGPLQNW
Procedure: (§1) Cells expressing human orexin 1 or human orexin 2 receptors, were seeded at 8,000 cells/well in 384 well black-walled clear bottom, poly-D-lysine coated plates. After 24 h, the medium was removed and cells were washed once with phosphate buffered saline and serum-deprived overnight in assay buffer (130 mM NaCl, 5.4 mM KCl, 1.8 mM CaCl2, 0.8 mM MgSO4, 0.9 mM NaH2PO4, 25 mM glucose, 20 mM HEPES, pH 7.4) containing bovine serum albumin (1% w/v).
(§2) On the day of the experiment, the cells seeded in black plates were treated with assay buffer containing the Ca^2+ sensitive fluorescent dye Fluo-4-AM (2 μM), and probenecid (0.1 mM). After 1 h plates were washed twice with, and resuspended in, assay buffer containing probenecid (0.1 mM) using a multi plate washer. The plates were placed into a FLIPR II (Fluorometric Imaging Plate Reader, Molecular Devices, Sunnyvale, Calif., USA) and baseline fluorescence (fluorescence light units, FLU) was measured (5 measurements, 2 S each; laser excitation 488 nm at 0.6-1 W, CCD camera exposure 0.4 s) before addition of buffer alone (basal) or containing test compounds (either compound of formula I alone, agonist alone or agonist in the presence of various concentrations of compounds of formula I). Fluorescence measurements were then continued every 1 S for 120 S followed by every 4 S for 240 S.
(§3) The measurements were typically made in two sequences:
(§4) Compounds of formula I were tested usually in a concentration range from 10^−9 M to 10^−5 M.
(§5) In the second round, performed one hour later (to allow for equilibration), Orexin A was tested either in the absence (calibration curves, Orexin A agonist controls) or in the presence of compounds of formula I to determine antagonism.

[2] = target: T2, human orexin 1 receptor (hOx1R) (Homo sapiens, UniProt O43613); assay: Calcium accumulation in cells (FLIPR), antagonism of orexin A, hOx1R; format: cell-based; conditions: for Kd: cells expressing human orexin 1 receptor, IC50 vs orexin A converted by Cheng and Prusoff correction
T2 construct: expressed in transfected cells
T2 sequence (O43613 1-425): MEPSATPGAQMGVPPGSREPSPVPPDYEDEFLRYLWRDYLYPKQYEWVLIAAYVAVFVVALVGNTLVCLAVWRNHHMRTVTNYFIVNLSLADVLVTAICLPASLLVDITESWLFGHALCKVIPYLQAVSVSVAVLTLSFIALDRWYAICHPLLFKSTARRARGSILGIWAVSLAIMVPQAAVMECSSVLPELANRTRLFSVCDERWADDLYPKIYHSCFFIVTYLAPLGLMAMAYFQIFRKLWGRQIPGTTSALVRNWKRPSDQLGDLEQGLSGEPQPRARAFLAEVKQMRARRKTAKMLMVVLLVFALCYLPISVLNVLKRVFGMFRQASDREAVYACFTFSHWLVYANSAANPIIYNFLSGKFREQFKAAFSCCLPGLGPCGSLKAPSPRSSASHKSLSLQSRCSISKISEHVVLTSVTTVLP
Procedure: as §1, §2, §3, §4, §5

[3] = target: T2, human orexin 1 receptor (hOx1R); assay: Radioligand binding assay ([125I]orexin A competition), hOx1R; conditions: CHO or HEK cell membranes, 1 h room temperature
Procedure: (§6) For crude cell membrane preparations, cells (CHO, Chinese hamster ovary or HEK, human embryonic kidney) expressing human orexin 1 or human orexin 2 receptors, were washed with HEPES (10 mM, pH 7.5), scraped off the culture plates with the same buffer, and centrifuged at 4° C. for 5 min at 2500×g. The cell pellet was either stored at −80° C. or used directly. Before the experiments, cell membranes were re-suspended in binding assay buffer (10 mM HEPES, 0.5% (w/v) bovine serum albumin, pH 7.5) by homogenisation with a Polytron homogeniser at 50 Hz for 20 s. Cell membranes were also used as made available by commercial providers.
(§7) In initial saturation experiments (to calculate Bmax), cell homogenates (150 μl) were incubated with 25-300 pM of the radioligand ([^125I]orexin A, 50 μl), 8 concentrations in triplicates in the presence or absence Orexin A (1 μM, 50 μl) to define non specific binding. Bound radioactivity was measured, and data were analysed with the program XLFIT or Graphpad Prism. Protein concentration was determined according to the Bradford/BioRad Protein Assay Kit.
(§8) In competition experiments, cell homogenates (150 μl) were incubated in assay buffer (10 mM HEPES, pH 7.5, 0.5% (w/v) bovine serum albumin, 5 mM MgCl2, […], and tween 0.05%) for 1 h at room temperature with about […] of the radioligand ([^125I]orexin A, 2100 Ci/mmole, 50 μl), and with various concentrations of compounds of the invention (50 μl) in triplicates; non-specific binding was determined in the presence of Orexin A (1 μM). Reactions were terminated by vacuum filtration, 3 washes of ice cold wash buffer (Tris-HCl pH 7.4/10 mM, with NaCl 154 mM). Competition data is expressed in Table 1 as Kd [μM].

[4] = target: T1, human orexin 2 receptor (hOx2R); assay: Radioligand binding assay ([125I]orexin A competition), hOx2R; conditions: CHO or HEK cell membranes, 1 h room temperature
Procedure: as §6, §7, §8

Row | SMILES | Kd [1] [µM] | Kd [2] [µM] | Kd [3] [µM] | Kd [4] [µM] | inhibition at 10 µM ([2]; measured at a concentration of 10 μM of compound (cells marked ^a)) [%]
1 | CN(C(=O)c1ccccc1)[C@H](CCNC(=O)c1nc2ccccc2n1C)Cc1ccccc1 [Example 48, 1-Methyl-1H-benzoimidazole-2-carboxylic acid [(S)-3-(benzoyl-methyl-amino)-4-phenyl-butyl]-amide] | 0.084 | 0.868 | 2.82 | 0.94 | 
2 | CCN(C(=O)c1cccc2c1OCO2)[C@H](CCNC(=O)c1ccccn1)Cc1ccccc1 [Example 45, Pyridine-2-carboxylic acid {(S)-3-[(benzo[1,3]dioxole-4-carbonyl)-ethyl-amino]-4-phenyl-butyl}-amide] | 0.424 | 2.71 | 5.33 | 0.748 | 
3 | CN(C(=O)c1cccc2ccccc12)[C@H](CCNC(=O)c1ccccn1)Cc1ccccc1 [Example 6, Pyridine-2-carboxylic acid {(S)-3-[methyl-(naphthalene-1-carbonyl)-amino]-4-phenyl-butyl}-amide] | 0.057 | 0.031 | 0.025 | 0.02 | 
4 | CN(C(=O)c1ccccc1)[C@@H](CCNC(=O)c1ccccn1)Cc1ccccc1 [Example 68, Pyridine-2-carboxylic acid [(R)-3-(benzoyl-methyl-amino)-4-phenyl-butyl]-amide] | 2.37 | 3.58 | > 10 | 7.53 | 
5 | CN(C(=O)c1cccc2cc[nH]c12)[C@H](CCNC(=O)c1ccccn1)Cc1ccccc1 [Example 38, 1H-Indole-7-carboxylic acid {(S)-1-benzyl-3-[(pyridine-2-carbonyl)-amino]-propyl}-methyl-amide] | 0.162 | 0.035 | 0.086 | 0.59 | 
6 | CN(C(=O)c1ccc2c(ccn2C)c1)[C@H](CCNC(=O)c1ccccn1)Cc1ccccc1 [Example 84, 1-Methyl-1H-indole-5-carboxylic acid {(S)-1-benzyl-3-[(pyridine-2-carbonyl)-amino]-propyl}-methyl-amide] | 0.809 | 0.05 | 0.03 | 1.33 | 
7 | CCN(C(=O)c1cc(C(F)(F)F)cc(C(F)(F)F)c1)[C@H](CCNC(=O)c1ccccn1)Cc1ccccc1 [Example 10, Pyridine-2-carboxylic acid {(S)-3-[(3,5-bis-trifluoromethyl-benzoyl)-ethyl-amino]-4-phenyl-butyl}-amide] | 0.027 | 1.36 | 3.27 | 0.059 | 
8 | COc1cccc(C(=O)N(C)[C@H](CCNC(=O)c2nc3ccccc3n2C)Cc2ccccc2)c1 [Example 79, 1-Methyl-1H-benzoimidazole-2-carboxylic acid {(S)-3-[(3-methoxy-benzoyl)-methyl-amino]-4-phenyl-butyl}-amide] | 0.012 | 0.225 | 0.073 | 0.03 | 
9 | Cc1nc(C(=O)NCC[C@H](Cc2ccccc2)N(C)C(=O)c2ccccc2)c(-c2ccccc2F)s1 [Example 27, 5-(2-Fluoro-phenyl)-2-methyl-thiazole-4-carboxylic acid [(S)-3-(benzoyl-methyl-amino)-4-phenyl-butyl]-amide] | 0.011 | 0.076 | 0.783 | 0.337 | 
10 | CN(C(=O)c1cc(F)cc(F)c1)[C@H](CCNC(=O)c1ccccn1)Cc1ccccc1 [Example 34, Pyridine-2-carboxylic acid {(S)-3-[(3,5-difluoro-benzoyl)-methyl-amino]-4-phenyl-butyl}-amide] | 0.558 | 0.731 | 0.253 | 0.466 | 
11 | CN(C(=O)c1cccc2c1OCO2)[C@@H](CCNC(=O)c1ccccn1)Cc1ccccc1 [Example 61, Pyridine-2-carboxylic acid {(R)-3-[(benzo[1,3]-dioxole-4-carbonyl)-methyl-amino]-4-phenyl-butyl}-amide] |  | 3.83 | 4.56 |  | 
12 | CN(C(=O)c1cccc2c1OCO2)[C@H](CCNC(=O)c1ccccn1)Cc1ccccc1 [Example 30, Pyridine-2-carboxylic acid {(S)-3-[(benzo[1,3]dioxole-4-carbonyl)-methyl-amino]-4-phenyl-butyl}-amide] |  | 2.19 | 1.1 |  | 
13 | COc1cc(Cl)cc(C(=O)N(C)[C@H](CCNC(=O)c2cccn2C)Cc2ccccc2)c1 [Example 106, 1-Methyl-1H-pyrrole-2-carboxylic acid {(S)-3-[(3-chloro-5-methoxy-benzoyl)-methyl-amino]-4-phenyl-butyl}-amide] |  | 0.084 | 0.05 | 0.003 | 
14 | CN(C(=O)c1ccc2c(c1)OCO2)[C@@H](CCNC(=O)c1ccccn1)Cc1ccccc1 [Example 47, Pyridine-2-carboxylic acid {(R)-3-[(benzo[1,3]dioxole-5-carbonyl)-methyl-amino]-4-phenyl-butyl}-amide] |  | 6.29 | 12.3 |  | 
15 | CN(C(=O)c1ccc2c(c1)OCO2)[C@H](CCNC(=O)c1ccccn1)Cc1ccccc1 [Example 1, Pyridine-2-carboxylic acid {(S)-3-[(benzo[1,3]dioxole-5-carbonyl)-methyl-amino]-4-phenyl-butyl}-amide] |  | 0.228 | 0.179 |  | 
16 | [2H]C([2H])(c1ccccc1)C(CCNC(=O)c1ccccn1)N(C)C(=O)c1ccc2c(c1)OCO2 (centres unmarked) [Example 110, Pyridine-2-carboxylic acid {3-[(benzo[1,3]dioxole-5-carbonyl)-methyl-amino]-4,4-dideutero-4-phenyl-butyl}-amide] |  | 1.73 | 1.38 |  | 
17 | CN(C(=O)c1ccc2c(c1)OCO2)[C@@H](Cc1ccccc1)C(C)(C)CNC(=O)c1ccccn1 [Example 113, Pyridine-2-carboxylic acid {(S)-3-[(benzo[1,3]dioxole-5-carbonyl)-methyl-amino]-2,2-dimethyl-4-phenyl-butyl}-amide] | 0.497 |  |  | 0.531 | 24
